Data set [1] concerns RAW264.7. Description: Inhibition of LPS-induced nitric oxide production in mouse RAW264.7 cells at 100 uM after 24 hrs by Griess reaction relative to control. Format: functional. The settings on record: for inhibition at 100 µM: Mus musculus, RAW264.7, 24 h. In general terms: Griess reagent forms a coloured azo dye with nitrite.
Data set [2] deals with RAW264.7. Description: Inhibition of LPS-induced nitric oxide production in mouse RAW264.7 cells at 25 uM after 24 hrs by Griess reaction relative to control. Format: functional. Conditions: for inhibition at 25 µM: Mus musculus, RAW264.7, 24 h.
For data set [3], the system named is RAW264.7. Description: Inhibition of LPS-induced nitric oxide production in mouse RAW264.7 cells at 50 uM after 24 hrs by Griess reaction relative to control. The data set is classed as functional. The settings on record: for inhibition at 50 µM: Mus musculus, RAW264.7, 24 h.
Data set [4] has as its system RAW264.7. Briefly: Cytotoxicity against mouse RAW264.7 cells after 24 hrs by MTT assay. Format: cell-based. Background: Tetrazolium dyes change colour on reduction, which living cells bring about.
Data set [5] concerns RAW264.7. Description: Inhibition of LPS-induced nitric oxide production in mouse RAW264.7 cells at 12.5 uM after 24 hrs by Griess reaction relative to control. The data set is classed as functional.
Data set [6] relates to RAW264.7. Briefly: Inhibition of LPS-induced iNOS mRNA expression in mouse RAW264.7 cells by RT-PCR analysis. Format: functional, cell-based.
The subject of data set [7] is RAW264.7. Description: Inhibition of LPS-induced iNOS mRNA expression in mouse RAW264.7 cells at 100 uM by RT-PCR analysis. The data set is classed as functional, cell-based.
Data set [8] has as its system RAW264.7. Briefly: Inhibition of LPS-induced nitric oxide production in mouse RAW264.7 cells at 1.5625 uM after 24 hrs by Griess reaction relative to control. Format: functional.
The test system of data set [9] is RAW264.7. Briefly: Inhibition of LPS-induced nitric oxide production in mouse RAW264.7 cells at 3.125 uM after 24 hrs by Griess reaction relative to control. Format: functional.
Data set [10] relates to RAW264.7. Description: Inhibition of LPS-induced nitric oxide production in mouse RAW264.7 cells at 6.25 uM after 24 hrs by Griess reaction relative to control. The data set is classed as functional.
Data set [11] concerns RAW264.7. Briefly: Cytotoxicity against mouse RAW264.7 cells at 6.25 uM after 24 hrs by MTT assay. The settings on record: raw264.7, 24 h. The data set is classed as cell-based.

Structures are written as SMILES. Active and inactive are the calls of the source. The rule behind the calls is not given here.

Regarding `COC1=C[C@@H]2[C@@H]3Cc4c(-c5cc(OC)c(O)c6c5C[C@@H]5NCC[C@]67CC(=O)C(OC)=C[C@H]57)cc(OC)c(O)c4[C@]2(CCN3)CC1=O` (stereo in doubt; 3b), the entries for the “inhibition (INH)” value with RAW264.7 [1], with RAW264.7 [2] and in the data set on RAW264.7 [3] were -7.1%, -11.6% and -11%, respectively.

A word on the IC50: it is the concentration that inhibits the measured activity by half. A high value points to weaker potency in that assay. In general, inhibition refers to the change of the read-out against control, counted positive when it falls. For the compound `COc1cc(-c2cc(OC)c(O)c3c2C[C@H]2[C@H]4C[C@@H](OC)[C@H](NS(=O)(=O)c5ccc(C)cc5)C[C@@]34CCN2C)c2c(c1O)[C@@]13CCN(C)[C@@H](C2)[C@H]1C[C@@H](OC)[C@H](NS(=O)(=O)c1ccc(C)cc1)C3` (stereo in doubt; 4b), the IC50 with RAW264.7 [4] (raw264.7) amounted to 72.9 µM. The “inhibition (INH)” value is on record as -4% with RAW264.7 [5] and -2.9% with RAW264.7 [2]. Also, the inhibition at 50 µM with RAW264.7 [3] is -2.2%.

In the case of `COc1cc(-c2cc(OC)c(O)c3c2C[C@H]2[C@H]4CCCC[C@@]34CCN2C)c2c(c1O)[C@]13CCCC[C@@H]1[C@H](C2)N(C)CC3` (stereo in doubt; 2a) [listing 1 of 2 here], the inhibition result with RAW264.7 [6] is “Dose-dependent effect”.

Take `COc1ccc2c(c1O)[C@@]13CCN(C)[C@@H](C2)[C@H]1Cc1nc2ccccc2nc1C3`: the IC50 with RAW264.7 [4] (Mus musculus, RAW264.7, 24 h) worked out at 57.9 µM. For the same compound, the inhibition at 12.5 µM in the data set on RAW264.7 [5] (Mus musculus, RAW264.7, 24 h) was 1.3%. Also, in the data set with RAW264.7 [2], the inhibition at 25 µM is 11.4%.

In the data set with RAW264.7 [4] (Mus musculus, RAW264.7, 24 h), `COc1ccc2c(c1O)[C@@]13CCN(C)[C@@H](C2)[C@H]1C[C@@H](OC)[C@H](NS(C)(=O)=O)C3` came in with a half-maximal inhibitory concentration (IC50) greater than 100 µM. In addition, the inhibition at 100 µM with RAW264.7 [1] was -3.5%. Besides, the inhibition at 25 µM in the data set on RAW264.7 [2] is -2.3%. The inhibition at 50 µM with RAW264.7 [3] is -3.7%.

In turn, `COC1=C[C@@H]2[C@@H]3Cc4ccc(OC)c(O)c4[C@]2(CCN3C)CC1=O` [SINOMENINE] displayed an IC50 in the data set on RAW264.7 [4] (Mus musculus, RAW264.7, 24 h) greater than 100 µM. For the same compound, the inhibition at 100 µM with RAW264.7 [1] came out at 12.8%. The inhibition at 25 µM in the data set on RAW264.7 [2] is -3%. In the data set with RAW264.7 [3], the inhibition at 50 µM was 0.1%. For the same compound, the inhibition result in the data set on RAW264.7 [7] was “Active”.

On to `COc1cc(-c2cc(OC)c(O)c3c2C[C@H]2[C@H]4C[C@@H](OC)[C@H](NS(C)(=O)=O)C[C@@]34CCN2C)c2c(c1O)[C@@]13CCN(C)[C@@H](C2)[C@H]1C[C@@H](OC)[C@H](NS(C)(=O)=O)C3` (stereo in doubt; 5b), for which the “inhibition (INH)” value with RAW264.7 [1] is recorded as 9.9%; in the data set on RAW264.7 [2], -8.4%; in the data set with RAW264.7 [3], 8.6%.

Turning to `N=C(N)NN` [PIMAGEDINE], in the data set on RAW264.7 [1], the inhibition at 100 µM turned out to be 86%. In the data set on RAW264.7 [2], the inhibition at 25 µM turned out to be 52.5%. The inhibition at 50 µM with RAW264.7 [3] is 74.9%.

`COc1cc(-c2cc(OC)c(O)c3c2C[C@H]2[C@H]4C[C@@H](OC)[C@H](NS(=O)(=O)c5ccc(C)cc5)C[C@@]34CCN2C)c2c(c1O)[C@@]13CCN(C)[C@@H](C2)[C@H]1C[C@@H](OC)[C@H](NS(=O)(=O)c1ccc(C)cc1)C3` (stereo in doubt; 4a) had a 50% inhibitory concentration (IC50) in the data set on RAW264.7 [4] (Mus musculus, RAW264.7, 24 h) of 43.5 µM. For the same compound, the “inhibition (INH)” value was 2.6% in the data set on RAW264.7 [5] and 4.9% in the data set on RAW264.7 [2].

In turn, `COc1cc(-c2cc(OC)c(O)c3c2C[C@H]2[C@H]4Cc5nc6ccccc6nc5C[C@@]34CCN2C)c2c(c1O)[C@@]13CCN(C)[C@@H](C2)[C@H]1Cc1nc2ccccc2nc1C3` displayed an IC50 in the data set with RAW264.7 [4] (Mus musculus, RAW264.7, 24 h) of 6.3 µM. Besides, the inhibition at 1.5625 µM in the data set with RAW264.7 [8] (Mus musculus, RAW264.7, 24 h) was determined as 8.4%.

Regarding `COc1cc(-c2cc(OC)c(O)c3c2C[C@H]2[C@H]4CCCC[C@@]34CCN2C)c2c(c1O)[C@]13CCCC[C@@H]1[C@H](C2)N(C)CC3` (stereo in doubt; 2b) [listing 1 of 2 here], the inhibition at 3.125 µM with RAW264.7 [9] (Mus musculus, RAW264.7, 24 h) came to 16.9%. In the data set with RAW264.7 [4] (raw264.7), this compound had an IC50 of 14.2 µM. Further, in the data set with RAW264.7 [8], the “inhibition (INH)” value is reported as -4.4%. For the same compound, the inhibition at 6.25 µM with RAW264.7 [10] (Mus musculus, RAW264.7, 24 h) turned out to be 35.2%.

On to `COc1cc(-c2cc(OC)c(O)c3c2C[C@H]2[C@H]4C[C@@H](OC)[C@H](NS(C)(=O)=O)C[C@@]34CCN2C)c2c(c1O)[C@@]13CCN(C)[C@@H](C2)[C@H]1C[C@@H](OC)[C@H](NS(C)(=O)=O)C3` (stereo in doubt; 5a), for which, in the data set with RAW264.7 [4] (Mus musculus, RAW264.7, 24 h), the half-inhibitory concentration (IC50) was greater than 100 µM. Also, the inhibition at 100 µM in the data set on RAW264.7 [1] amounted to 9.3%. Moreover, the “inhibition (INH)” value is -0.2% with RAW264.7 [2] and 0.2% with RAW264.7 [3].

In the data set on RAW264.7 [4] (Mus musculus, RAW264.7, 24 h), `COc1ccc2c(c1O)[C@]13CCCC[C@@H]1[C@H](C2)N(C)CC3` yielded a 50% inhibitory concentration (IC50) greater than 100 µM. Besides, in the data set on RAW264.7 [1], the inhibition at 100 µM is 30.6%. The inhibition at 25 µM with RAW264.7 [2] was determined as 12.1%. Also, in the data set with RAW264.7 [3], the inhibition at 50 µM amounted to 28.1%. The inhibition result in the data set with RAW264.7 [6] was “Dose-dependent effect”.

Regarding `COC1=C[C@@H]2[C@@H]3Cc4c(-c5cc(OC)c(O)c6c5C[C@@H]5NCC[C@]67CC(=O)C(OC)=C[C@H]57)cc(OC)c(O)c4[C@]2(CCN3)CC1=O` (stereo in doubt; 3a), the 50% inhibitory concentration (IC50) with RAW264.7 [4] (Mus musculus, RAW264.7, 24 h) is greater than 100 µM. In addition, the figures for the “inhibition (INH)” value in the data set on RAW264.7 [1], in the data set with RAW264.7 [2] and in the data set with RAW264.7 [3] were 16%, -9.3% and -12.6%, respectively.

For the compound `COc1cc(-c2cc(OC)c(O)c3c2C[C@H]2[C@H]4CCCC[C@@]34CCN2C)c2c(c1O)[C@]13CCCC[C@@H]1[C@H](C2)N(C)CC3` (stereo in doubt; 2a) [listing 2 of 2 here], the “inhibition (INH)” value in the data set on RAW264.7 [9] stood at 17%; in the data set on RAW264.7 [8], 2.7%; in the data set with RAW264.7 [10], 41.6%. Moreover, the Activity result in the data set on RAW264.7 [11] is “Non-toxic”. The compound also had an IC50 with RAW264.7 [4] (Mus musculus, RAW264.7, 24 h) of 9.5 µM.

`COC1=C[C@@H]2[C@@H]3Cc4c(-c5cc(OC)c(O)c6c5C[C@H]5[C@H]7C=C(OC)C(=O)C[C@@]67CCN5C)cc(OC)c(O)c4[C@]2(CCN3C)CC1=O` (stereo in doubt; 1a) [listing 1 of 2 here] came in with a half-maximal inhibitory concentration (IC50) in the data set on RAW264.7 [4] (Mus musculus, RAW264.7, 24 h) greater than 100 µM. In addition, the “inhibition (INH)” value with RAW264.7 [1] is given as 23.7%; in the data set on RAW264.7 [2], -2.9%; in the data set with RAW264.7 [3] it was 15%.

`COC1=C[C@@H]2[C@@H]3Cc4c(-c5cc(OC)c(O)c6c5C[C@H]5[C@H]7C=C(OC)C(=O)C[C@@]67CCN5C)cc(OC)c(O)c4[C@]2(CCN3C)CC1=O` (stereo in doubt; 1b): the figures for the “inhibition (INH)” value in the data set on RAW264.7 [1], in the data set with RAW264.7 [2] and in the data set with RAW264.7 [3] were -2.1%, -1.3% and 6.6%, respectively.

Consider `COC1=C[C@@H]2[C@@H]3Cc4ccc(OC)c(O)c4[C@]2(CCN3)CC1=O`, for which the IC50 with RAW264.7 [4] (Mus musculus, RAW264.7, 24 h) was greater than 100 µM. Also, the inhibition at 100 µM in the data set on RAW264.7 [1] amounted to 10.7%. In addition, the inhibition at 25 µM in the data set on RAW264.7 [2] was -6.1%. In addition, in the data set with RAW264.7 [3], the inhibition at 50 µM is -0.8%.

The compound `COc1ccc2c(c1O)[C@@]13CCN(C)[C@@H](C2)[C@H]1C[C@@H](OC)[C@H](NS(=O)(=O)c1ccc(C)cc1)C3` came in with an IC50 in the data set on RAW264.7 [4] (Mus musculus, RAW264.7, 24 h) greater than 100 µM. Besides, in the data set on RAW264.7 [1], the inhibition at 100 µM came out at 39.8%. For the same compound, the inhibition at 25 µM in the data set with RAW264.7 [2] came out at 10.9%. For the same compound, the inhibition at 50 µM in the data set with RAW264.7 [3] came out at 30%. For the same compound, the inhibition result with RAW264.7 [6] is “Dose-dependent effect”.

For the compound `COC1=C[C@@H]2[C@@H]3Cc4c(-c5cc(OC)c(O)c6c5C[C@H]5[C@H]7C=C(OC)C(=O)C[C@@]67CCN5C)cc(OC)c(O)c4[C@]2(CCN3C)CC1=O` (stereo in doubt; 1a) [listing 2 of 2 here], the inhibition result in the data set with RAW264.7 [6] is “Dose-dependent effect”.

For `COc1cc(-c2cc(OC)c(O)c3c2C[C@H]2[C@H]4CCCC[C@@]34CCN2C)c2c(c1O)[C@]13CCCC[C@@H]1[C@H](C2)N(C)CC3` (stereo in doubt; 2b) [listing 2 of 2 here], the inhibition entry in the data set on RAW264.7 [6] was “Dose-dependent effect”.
